We go through 15 compounds from ChEMBL document CHEMBL1909046, “DrugMatrix in vitro pharmacology data”.

SMILES strings stand for the structures. *1 amine or outer side, *2 acyl side, *3 side chain or, on linkers, in order; H or OH if unused. Where a SMILES comes first, the peptide text is derived from it. Bridges are numbered along the chain shown (N, C = ends). Roman numbers before positions name the chains, in order. [ ]: non-standard residue; d: D form. Actinocin(1to9) = Cc1c2oc3c(C)ccc(C(=O)[*:2])c3nc-2c(C(=O)[*:1])c(N)c1=O; NMeV = CN[C@H](C(=O)O)C(C)C; Sar = CNCC(=O)O

For test [1], the target named is T1, Nitric oxide synthase, inducible (Mus musculus, UniProt P29477).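 Also: inhibition of iNOS enzyme activity measured with L-arginine as substrate; in other assays of this panel Not Active means under 50% inhibition at 10 µM.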
T1 sequence (P29477 whole entry): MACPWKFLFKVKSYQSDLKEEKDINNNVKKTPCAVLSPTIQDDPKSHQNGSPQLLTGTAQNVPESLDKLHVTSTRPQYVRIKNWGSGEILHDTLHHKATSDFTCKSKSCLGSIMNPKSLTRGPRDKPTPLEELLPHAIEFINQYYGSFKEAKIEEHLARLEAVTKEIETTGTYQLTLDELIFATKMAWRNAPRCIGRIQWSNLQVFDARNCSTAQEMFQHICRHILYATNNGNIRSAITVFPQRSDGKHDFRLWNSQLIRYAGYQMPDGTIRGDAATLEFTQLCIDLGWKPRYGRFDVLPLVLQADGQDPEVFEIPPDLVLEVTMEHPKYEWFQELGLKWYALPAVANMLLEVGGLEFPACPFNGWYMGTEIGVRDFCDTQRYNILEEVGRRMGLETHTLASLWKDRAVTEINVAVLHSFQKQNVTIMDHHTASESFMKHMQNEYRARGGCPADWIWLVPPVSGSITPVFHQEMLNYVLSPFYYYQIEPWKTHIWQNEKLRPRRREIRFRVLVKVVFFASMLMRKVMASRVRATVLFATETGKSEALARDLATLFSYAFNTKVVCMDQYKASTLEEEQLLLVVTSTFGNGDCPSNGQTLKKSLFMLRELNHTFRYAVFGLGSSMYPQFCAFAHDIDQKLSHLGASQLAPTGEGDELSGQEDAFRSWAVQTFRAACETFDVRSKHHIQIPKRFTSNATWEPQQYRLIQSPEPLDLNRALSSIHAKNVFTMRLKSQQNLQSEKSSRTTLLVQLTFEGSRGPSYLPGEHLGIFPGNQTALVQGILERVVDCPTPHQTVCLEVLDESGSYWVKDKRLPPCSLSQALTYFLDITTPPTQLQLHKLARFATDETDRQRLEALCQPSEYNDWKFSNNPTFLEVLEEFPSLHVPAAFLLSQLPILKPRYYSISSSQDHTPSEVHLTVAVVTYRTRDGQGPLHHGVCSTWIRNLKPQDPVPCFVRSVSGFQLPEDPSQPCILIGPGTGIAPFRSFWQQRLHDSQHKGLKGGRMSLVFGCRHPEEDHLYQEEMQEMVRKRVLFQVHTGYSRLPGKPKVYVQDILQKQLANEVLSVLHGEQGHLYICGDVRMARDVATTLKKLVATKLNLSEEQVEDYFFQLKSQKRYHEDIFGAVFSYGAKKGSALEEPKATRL
Also on record: species or system Escherichia coli.

Test [2] has as its target Sigma non-opioid intracellular receptor 1 (Homo sapiens, UniProt Q99720). As to the kind of experiment: DRUGMATRIX: Sigma1 radioligand binding (ligand: [3H] Haloperidol). The format is cell membranes, Jurkat, Membrane. Particulars: jurkat; Not Active = under 50% inhibition at 10 µM.
Test [3] concerns the target T2, Muscarinic acetylcholine receptor M2 (Homo sapiens, UniProt P08172). Also: in other assays of this panel Not Active means under 50% inhibition at 10 µM.
T2 sequence (P08172 whole entry): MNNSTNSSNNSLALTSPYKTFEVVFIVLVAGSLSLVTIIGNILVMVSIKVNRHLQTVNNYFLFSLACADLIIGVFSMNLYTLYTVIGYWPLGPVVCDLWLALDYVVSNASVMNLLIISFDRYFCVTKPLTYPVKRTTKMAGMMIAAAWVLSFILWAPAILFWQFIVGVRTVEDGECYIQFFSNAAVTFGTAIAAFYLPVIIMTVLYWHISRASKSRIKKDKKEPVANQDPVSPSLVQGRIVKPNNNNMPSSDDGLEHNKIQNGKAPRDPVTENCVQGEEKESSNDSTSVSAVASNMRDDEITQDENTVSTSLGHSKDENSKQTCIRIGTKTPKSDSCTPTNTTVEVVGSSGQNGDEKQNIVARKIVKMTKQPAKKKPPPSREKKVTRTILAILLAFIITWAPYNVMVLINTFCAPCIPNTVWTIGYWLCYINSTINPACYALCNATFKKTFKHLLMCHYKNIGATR
The format is cell membranes, CHO-K1, Membrane. The following applies: cho-k1.

The target of test [4] is T3, 5-hydroxytryptamine receptor 1A (Rattus norvegicus, UniProt P19327). Also: in other assays of this panel Not Active means under 50% inhibition at 10 µM.
T3 sequence (P19327 whole entry): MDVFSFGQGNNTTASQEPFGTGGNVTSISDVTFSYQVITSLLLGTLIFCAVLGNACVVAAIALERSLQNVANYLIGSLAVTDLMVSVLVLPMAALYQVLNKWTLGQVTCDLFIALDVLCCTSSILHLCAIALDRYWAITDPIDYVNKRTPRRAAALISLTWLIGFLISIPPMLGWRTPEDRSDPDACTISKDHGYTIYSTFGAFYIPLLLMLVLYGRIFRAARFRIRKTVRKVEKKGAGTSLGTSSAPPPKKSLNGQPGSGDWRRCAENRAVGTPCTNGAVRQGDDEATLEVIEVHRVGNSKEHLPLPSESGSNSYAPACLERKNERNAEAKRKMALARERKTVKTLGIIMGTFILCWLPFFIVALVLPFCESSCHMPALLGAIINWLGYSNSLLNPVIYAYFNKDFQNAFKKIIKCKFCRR
The format is cell membranes, CHO-K1, Membrane. The following applies: for Ki: read-out: Ki.

Test [5] has as its target T4, Neuropeptide Y receptor type 2 (Homo sapiens, UniProt P49146). Also: in other assays of this panel Not Active means under 50% inhibition at 10 µM.
T4 sequence (P49146 whole entry): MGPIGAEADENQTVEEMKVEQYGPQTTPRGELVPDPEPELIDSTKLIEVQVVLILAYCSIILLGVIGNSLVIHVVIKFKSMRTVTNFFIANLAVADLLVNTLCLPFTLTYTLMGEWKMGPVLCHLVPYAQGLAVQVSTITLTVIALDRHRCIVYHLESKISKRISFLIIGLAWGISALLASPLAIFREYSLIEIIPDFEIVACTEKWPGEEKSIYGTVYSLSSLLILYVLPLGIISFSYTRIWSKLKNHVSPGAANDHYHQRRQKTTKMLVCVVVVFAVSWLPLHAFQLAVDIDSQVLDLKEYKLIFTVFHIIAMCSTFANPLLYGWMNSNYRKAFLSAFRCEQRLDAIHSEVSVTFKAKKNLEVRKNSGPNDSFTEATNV
The format is cell membranes, Membrane. Particulars: kan-ts.

For test [6], the target named is Mitogen-activated protein kinase 1 (Homo sapiens, UniProt P28482). As to the kind of experiment: DRUGMATRIX: Protein Serine/Threonine Kinase, ERK2 enzyme inhibition (substrate: Myelin Basic Protein). Set-up: species or system Escherichia coli. The following applies: Not Active = under 50% inhibition at 10 µM.
Sequence of Mitogen-activated protein kinase 1 (P28482 whole entry): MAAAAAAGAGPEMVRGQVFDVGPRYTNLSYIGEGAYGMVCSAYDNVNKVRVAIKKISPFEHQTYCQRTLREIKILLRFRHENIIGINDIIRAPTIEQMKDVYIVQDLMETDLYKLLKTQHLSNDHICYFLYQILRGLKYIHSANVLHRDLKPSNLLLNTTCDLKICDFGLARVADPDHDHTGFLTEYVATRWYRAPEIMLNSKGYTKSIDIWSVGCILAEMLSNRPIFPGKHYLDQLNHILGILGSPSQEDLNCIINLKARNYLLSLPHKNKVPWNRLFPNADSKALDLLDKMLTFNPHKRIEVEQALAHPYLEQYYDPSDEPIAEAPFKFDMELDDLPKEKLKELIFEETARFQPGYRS

Sequence of Sigma non-opioid intracellular receptor 1 (Q99720 whole entry): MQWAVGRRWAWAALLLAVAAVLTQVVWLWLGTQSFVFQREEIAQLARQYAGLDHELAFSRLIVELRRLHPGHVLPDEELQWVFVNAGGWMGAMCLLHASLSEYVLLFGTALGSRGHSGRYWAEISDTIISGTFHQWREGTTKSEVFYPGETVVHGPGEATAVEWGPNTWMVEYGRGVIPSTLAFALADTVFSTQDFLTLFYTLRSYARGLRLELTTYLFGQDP

With `Cc1cc(C(C#N)c2ccc(Cl)cc2)c(Cl)cc1NC(=O)c1cc(I)cc(I)c1O` (configuration not stated) [CLOSANTEL], the 50% inhibitory concentration (IC50) result is “Not Active” in test [1]; “Not Active” in test [2]; “Not Active” in test [3]; “Not Active” in test [4] (cho-k1); “Not Active” in test [5]; 1430 nM in test [6] (read-out: IC50).

As to `Cc1onc(-c2ccccc2Cl)c1C(=O)N[C@@H]1C(=O)N2[C@@H]1SC(C)(C)[C@@H]2C(=O)O` [CLOXACILLIN], the IC50 entry in test [1], in test [2], in test [3], in test [4] (cho-k1), in test [5] and in test [6] was “Not Active” throughout.

For the compound `CC1CC(OC(=O)C(O)c2ccccc2)CC(C)(C)C1` (configuration not stated) [CYCLANDELATE], the half-maximal inhibitory concentration (IC50) result in test [1], in test [2], in test [3], in test [4] (cho-k1), in test [5] and in test [6] was “Not Active” throughout.

Regarding `Cc1c2oc3c(C)ccc(C(=O)N[C@@H]4C(=O)N[C@H](C(C)C)C(=O)N5CCC[C@H]5C(=O)N(C)CC(=O)N(C)[C@@H](C(C)C)C(=O)O[C@@H]4C)c3nc-2c(C(=O)N[C@@H]2C(=O)N[C@H](C(C)C)C(=O)N3CCC[C@H]3C(=O)N(C)CC(=O)N(C)[C@@H](C(C)C)C(=O)O[C@@H]2C)c(N)c1=O` [DACTINOMYCIN] (I: T[dV]P[Sar][NMeV] / II: T[dV]P[Sar][NMeV]; ester I:1-I:C, II:1-II:C; linker I:N-II:N via Actinocin(1to9)), the IC50 entry in test [1], in test [2], in test [3], in test [4] (cho-k1), in test [5] and in test [6] was “Not Active” in each case.

For `Cc1c(O)c(=O)ccn1C` [DEFERIPRONE], the IC50 result in test [1], in test [2], in test [3], in test [4] (cho-k1), in test [5] and in test [6] was “Not Active” throughout.

In the case of `CNCCCN1c2ccccc2CCc2ccccc21` [DESIPRAMINE], the IC50 result in test [1], in test [2], in test [3], in test [4] (cho-k1), in test [5] and in test [6] was “Not Active” in each case.

With `O=c1oc2ccccc2c(O)c1Cc1c(O)c2ccccc2oc1=O` [DICUMAROL], the IC50 result in test [1] is “Not Active”; in test [2], “Not Active”; in test [3], “Not Active”; in test [4] (cho-k1), “Not Active”; in test [5] it was “Not Active”; in test [6] (read-out: IC50), 4430 nM.

As for `C[C@H]1O[C@@H](O[C@H]2[C@@H](O)C[C@H](O[C@H]3[C@@H](O)C[C@H](O[C@H]4CC[C@@]5(C)[C@H](CC[C@@H]6[C@@H]5C[C@@H](O)[C@]5(C)[C@@H](C7=CC(=O)OC7)CC[C@]65O)C4)O[C@@H]3C)O[C@@H]2C)C[C@H](O)[C@@H]1O` [DIGOXIN], the IC50 entry in test [1], in test [2], in test [3], in test [4] (cho-k1), in test [5] and in test [6] was “Not Active” each time.

In the case of `CC(C)[C@@]1(NC(=O)[C@@H]2C[C@@H]3c4cccc5[nH]cc(c45)C[C@H]3N(C)C2)O[C@@]2(O)[C@@H]3CCCN3C(=O)[C@H](Cc3ccccc3)N2C1=O.CS(=O)(=O)O` [DIHYDROERGOCRISTINE MESYLATE], the concentration for half-maximal inhibition (IC50) result in test [1] was “Not Active”; in test [2], “Not Active”; in test [3], “Not Active”; in test [4] (read-out: IC50), 0.722 nM; in test [5] it was “Not Active”; in test [6], “Not Active”. The Ki in test [4] was found to be 0.412 nM.

On to `CC(=O)O[C@@]12CO[C@@H]1C[C@H](O)[C@@]1(C)C(=O)[C@H](O)C3=C(C)[C@@H](OC(=O)[C@H](O)[C@@H](NC(=O)OC(C)(C)C)c4ccccc4)C[C@@](O)([C@@H](OC(=O)c4ccccc4)[C@H]21)C3(C)C.O.O.O` [DOCETAXEL], for which the concentration for half-maximal inhibition (IC50) result in test [1], in test [2], in test [3], in test [4] (cho-k1), in test [5] and in test [6] was “Not Active” throughout.

As for `COc1cc2nc(N3CCN(C(=O)C4COc5ccccc5O4)CC3)nc(N)c2cc1OC` (configuration not stated) [DOXAZOSIN], the IC50 entry in test [1], in test [2], in test [3], in test [4] (cho-k1), in test [5] and in test [6] was “Not Active” each time.

Consider `C[C@H]1c2cccc(O)c2C(=O)C2=C(O)[C@]3(O)C(=O)C(C(N)=O)=C(O)[C@@H](N(C)C)[C@@H]3[C@@H](O)[C@@H]21.O` [DOXYCYCLINE], for which the IC50 result in test [1], in test [2], in test [3], in test [4] (cho-k1), in test [5] and in test [6] was “Not Active” throughout.

`CC(C)[C@H]1C(=O)N2CCC[C@H]2[C@]2(O)O[C@](NC(=O)[C@@H]3C=C4c5cccc6[nH]cc(c56)C[C@H]4N(C)C3)(C(C)C)C(=O)N12` [ERGOCORNINE]: the IC50 entry in test [1] is “Not Active”; in test [2], “Not Active”; in test [3] it was “Not Active”; in test [4] (read-out: IC50), 3.11 nM; in test [5], “Not Active”; in test [6], “Not Active”. For the same compound, in test [4], the inhibition constant Ki came to 1.78 nM.

Turning to `C[C@]12CC[C@@H]3c4ccc(O)cc4CC[C@H]3[C@@H]1CCC2=O` [ESTRONE], the IC50 entry in test [1], in test [2], in test [3], in test [4] (cho-k1), in test [5] and in test [6] was “Not Active” in each case.

For `OC(Cn1cncn1)(Cn1cncn1)c1ccc(F)cc1F` [FLUCONAZOLE], the IC50 entry in test [1], in test [2], in test [3], in test [4] (cho-k1), in test [5] and in test [6] was “Not Active” each time.
